Data set [1] concerns the target T1, full-length beta-Catenin (Uniprot ID P35222) (Homo sapiens, UniProt P35222).
T1 construct: 10 nM full-length beta-Catenin (Uniprot ID P35222)
T1 sequence (P35222 1-781): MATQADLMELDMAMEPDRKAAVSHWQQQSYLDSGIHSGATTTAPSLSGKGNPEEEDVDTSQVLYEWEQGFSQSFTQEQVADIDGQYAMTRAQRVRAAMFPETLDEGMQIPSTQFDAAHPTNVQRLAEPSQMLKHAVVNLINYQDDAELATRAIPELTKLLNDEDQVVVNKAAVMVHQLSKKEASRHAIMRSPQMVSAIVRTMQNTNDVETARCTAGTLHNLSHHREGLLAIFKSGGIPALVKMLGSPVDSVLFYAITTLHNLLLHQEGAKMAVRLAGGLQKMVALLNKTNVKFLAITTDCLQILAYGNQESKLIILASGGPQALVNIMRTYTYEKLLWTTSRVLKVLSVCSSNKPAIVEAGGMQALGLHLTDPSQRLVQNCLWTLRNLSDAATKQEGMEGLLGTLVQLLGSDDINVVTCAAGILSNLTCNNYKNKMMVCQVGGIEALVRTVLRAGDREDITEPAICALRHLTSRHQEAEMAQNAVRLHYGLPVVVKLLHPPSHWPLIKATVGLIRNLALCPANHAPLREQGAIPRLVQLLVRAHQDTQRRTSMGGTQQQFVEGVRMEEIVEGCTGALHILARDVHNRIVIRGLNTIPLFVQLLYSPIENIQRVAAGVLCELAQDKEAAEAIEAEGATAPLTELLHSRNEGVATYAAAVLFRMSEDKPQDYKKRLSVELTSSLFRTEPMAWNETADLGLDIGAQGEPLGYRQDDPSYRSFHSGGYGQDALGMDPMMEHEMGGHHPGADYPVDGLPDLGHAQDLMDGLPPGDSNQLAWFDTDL
Put plainly: Fluorescence polarization IC50 (beta-catenin / 5FAM-TCF4 10-53 competition). The format is binding.

A short description of data set [2]: CHI Log D procedure. It is filed as physicochemical. To be noted: for chromatographic logD: pH 7.4, CHI Log D.
A short description of data set [3]: Solubility in PBS. It is filed as physicochemical. In a few lines: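 Steps: ultracentrifuge the peptide PBS solution, inject the supernatant on HPLC, inject a 50 μM peptide DMSO solution as reference, then calculate solubility as area ratio (PBS/DMSO) × 50 uM.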

pIC50: −log10 of the molar value. In brackets after ≈: the same amount, converted by molar mass. Where two headings read alike, the source gives them in different places.

For orientation: chromatographic logD means lipophilicity estimated from chromatographic retention. A low value points to lower lipophilicity. As usually defined, the Solubility is the concentration that dissolves in the medium under given conditions. The low end stands for a poorly soluble substance, the high end for a readily soluble substance. For the molecule `CC(=O)N1CCC[C@]12CC=CCCCC1(CCCC=CCCCOC(=O)N3CC[C@@](C(=O)N[C@@H](Cc4ccccc4Cl)C(=O)N[C@@H](Cc4csc5ccccc45)C(=O)N[C@@H](CCO)C(N)=O)(C3)NC(=O)[C@H](Cc3ccccc3)NC(=O)[C@H](Cc3ccccc3)NC(=O)[C@H](C)NC(=O)[C@H](C)NC(=O)[C@H](CN(CC(=O)O)CC(F)(F)F)NC(=O)[C@H](CC(=O)O)NC1=O)NC(=O)[C@H](CC(C)(C)C)NC(=O)[C@H](CC(=O)O)NC2=O` (stereo partly drawn) [I-992, Ac-PL3-Asp-Npg-B5-Asp-TfeGA-Ala-Ala-Phe-Phe-PyrS2-2C1F-BztA-Hse-NH2], the pIC50 in data set [1] (read-out: beta-Catenin FP IC50) is 7.23. Further, the chromatographic logD in data set [2] was determined as 2.56. Also, the Solubility in data set [3] (Solubility (uM)) is 12 µM (≈ 24.8 µg/mL).
On to `CC(=O)N1CCC[C@]12CC=CCCCC1(CCCC=CCCCCCC[C@@](C)(C(=O)N[C@@H](Cc3ccccc3Cl)C(=O)N[C@@H](Cc3csc4ccccc34)C(=O)N[C@@H](CCC(N)=O)C(N)=O)NC(=O)[C@H](CC(C)C)NC(=O)[C@H](Cc3ccccc3)NC(=O)[C@H](C)NC(=O)[C@H](C)NC(=O)[C@H](CN(CC(=O)O)CC(F)(F)F)NC(=O)[C@H](CC(=O)O)NC1=O)NC(=O)[C@H](CC(C)(C)C)NC(=O)[C@H](CC(=O)O)NC2=O` (stereo partly drawn) [I-994, Ac-PL3-Asp-Npg-B5-Asp-TfeGA-Ala-Ala-Phe-Leu-S8-2C1F-BztA-Gln-NH2], for which the pIC50 in data set [1] (read-out: beta-Catenin FP IC50) is 6.92. This molecule returned a chromatographic logD in data set [2] of 3.21. Moreover, the “Solubility” value in data set [3] amounted to 10 µM (≈ 20.1 µg/mL).
Regarding `CC(=O)N1CCC[C@]12CC=CCCCC1(CCCC=CCCCCCC[C@@](C)(C(=O)N[C@@H](Cc3ccccc3Cl)C(=O)N[C@@H](Cc3csc4ccccc34)C(=O)N[C@@H](CCC(N)=O)C(N)=O)NC(=O)[C@H](CO)NC(=O)[C@H](Cc3ccccc3)NC(=O)[C@H](C)NC(=O)[C@H](C)NC(=O)[C@H](CN(CC(=O)O)CC(F)(F)F)NC(=O)[C@H](CC(=O)O)NC1=O)NC(=O)[C@H](CC(C)(C)C)NC(=O)[C@H](CC(=O)O)NC2=O` (stereo partly drawn) [I-995, Ac-PL3-Asp-Npg-B5-Asp-TfeGA-Ala-Ala-Phe-Ser-S8-2C1F-BztA-Gln-NH2], the pIC50 in data set [1] (read-out: beta-Catenin FP IC50) was 7.26. In data set [2], this molecule registered a chromatographic logD of 2.8. The molecule also came in with a Solubility in data set [3] (Solubility (uM)) of 34 µM (≈ 67.6 µg/mL).
In the case of `CC(=O)N1CCC[C@]12CC=CCCCC1(CCCC=CCCCCCC[C@@](C)(C(=O)N[C@@H](Cc3ccccc3Cl)C(=O)N[C@@H](Cc3csc4ccccc34)C(=O)N[C@@H](CCO)C(N)=O)NC(=O)[C@H](CC(C)C)NC(=O)[C@H](Cc3ccccc3)NC(=O)[C@H](C)NC(=O)[C@H](C)NC(=O)[C@H](CN(CC(=O)O)CC(F)(F)F)NC(=O)[C@H](CC(=O)O)NC1=O)NC(=O)[C@H](CC(C)(C)C)NC(=O)[C@H](CC(=O)O)NC2=O` (stereo partly drawn) [I-997, Ac-PL3-Asp-Npg-B5-Asp-TfeGA-Ala-Ala-Phe-Leu-S8-2C1F-BztA-Hse-NH2], in data set [1] (read-out: beta-Catenin FP IC50), the pIC50 was 6.81. The molecule further had a chromatographic logD in data set [2] of 3.42. Further, the “Solubility” value in data set [3] was 10 µM (≈ 19.9 µg/mL).
As to `CC(=O)N1CCC[C@]12CC=CCCCC1(CCCC=CCCCCCC[C@@](C)(C(=O)N[C@@H](Cc3ccccc3Cl)C(=O)N[C@@H](Cc3csc4ccccc34)C(=O)N[C@@H](CCO)C(N)=O)NC(=O)[C@H](CO)NC(=O)[C@H](Cc3ccccc3)NC(=O)[C@H](C)NC(=O)[C@H](C)NC(=O)[C@H](CN(CC(=O)O)CC(F)(F)F)NC(=O)[C@H](CC(=O)O)NC1=O)NC(=O)[C@H](CC(C)(C)C)NC(=O)[C@H](CC(=O)O)NC2=O` (stereo partly drawn) [I-998, Ac-PL3-Asp-Npg-B5-Asp-TfeGA-Ala-Ala-Phe-Ser-S8-2C1F-BztA-Hse-NH2], the pIC50 in data set [1] (fluorescence polarization, beta-catenin, read-out: FP EC50) was 6.90; in data set [1] (read-out: beta-Catenin FP IC50), 6.90. Besides, the “CHI Log D” value in data set [2] (pH 7.4) turned out to be 2.87. In addition, the “Solubility” value in data set [3] is 43 µM (≈ 84.3 µg/mL).
Turning to `CC(=O)N1CCC[C@]12CC=CCCCC1(CCCC=CCCCOC(=O)N3CC[C@@](C(=O)N[C@@H](Cc4ccccc4Cl)C(=O)N[C@@H](Cc4csc5ccccc45)C(=O)N[C@@H](CCC(N)=O)C(N)=O)(C3)NC(=O)[C@H](CC(N)=O)NC(=O)[C@H](Cc3ccccc3)NC(=O)[C@H](Cc3ccccc3)NC(=O)[C@H](C)NC(=O)[C@H](CN(CC(=O)O)CC(F)(F)F)NC(=O)[C@H](CC(=O)O)NC1=O)NC(=O)[C@H](CC(C)(C)C)NC(=O)[C@H](CC(=O)O)NC2=O` (stereo partly drawn) [I-1003, Ac-PL3-Asp-Npg-B5-Asp-TfeGA-Ala-Phe-Phe-Asn-PyrS2-2C1F-BztA-Gln-NH2], in data set [1] (read-out: beta-Catenin FP IC50), the pIC50 is 7.42. The molecule further came in with a chromatographic logD in data set [2] of 2.54. The “Solubility” value in data set [3] stood at 10 µM (≈ 21.3 µg/mL).
For `CC[C@H](C)[C@@H]1NC(=O)[C@H](C)NC(=O)[C@H](CN(CC(=O)O)CC(F)(F)F)NC(=O)[C@H](CC(=O)O)NC(=O)C2(CCCC=CCCCOC(=O)N3CC[C@@](C(=O)N[C@@H](Cc4ccccc4Cl)C(=O)N[C@@H](Cc4csc5ccccc45)C(=O)N[C@@H](CCC(N)=O)C(N)=O)(C3)NC(=O)[C@H](CC(N)=O)NC(=O)[C@H](Cc3ccccc3)NC1=O)CCCC=CC[C@]1(CCCN1C(C)=O)C(=O)N[C@@H](CC(=O)O)C(=O)N[C@@H](CC(C)(C)C)C(=O)N2` (stereo partly drawn) [I-1005, Ac-PL3-Asp-Npg-B5-Asp-TfeGA-Ala-Ile-Phe-Asn-PyrS2-2C1F-BztA-Gln-NH2], in that order: 7.38, 2.64 and 10 µM (≈ 21 µg/mL).
Turning to `CC(=O)N1CCC[C@]12CC=CCCCC1(CCCC=CCCCOC(=O)N3CC[C@@](C(=O)N[C@@H](Cc4ccccc4Cl)C(=O)N[C@@H](Cc4csc5ccccc45)C(=O)N[C@@H](CO)C(N)=O)(C3)NC(=O)[C@H](CO)NC(=O)[C@H](Cc3ccccc3)NC(=O)[C@H](C)NC(=O)[C@H](C)NC(=O)[C@H](CC(N)=O)NC(=O)[C@H](CC(=O)O)NC1=O)NC(=O)[C@H](CC(C)(C)C)NC(=O)[C@H](CC(=O)O)NC2=O` (stereo partly drawn) [I-1020, Ac-PL3-Asp-Npg-B5-Asp-Asn-Ala-Ala-Phe-Ser-PyrS2-2C1F-BztA-Ser-NH2], the pIC50 in data set [1] (read-out: beta-Catenin FP IC50) is 7.28. The chromatographic logD in data set [2] was determined as 2.49. For the same molecule, the “Solubility” value in data set [3] was determined as 10 µM (≈ 18.8 µg/mL).
Consider `CC(=O)N1CCC[C@]12CC=CCCCC1(CCCC=CCCCOC(=O)N3CC[C@@](C(=O)N[C@@H](Cc4ccccc4F)C(=O)N[C@@H](Cc4csc5ccccc45)C(=O)N[C@@H](CO)C(N)=O)(C3)NC(=O)[C@H]([C@@H](C)O)NC(=O)[C@H](Cc3ccccc3)NC(=O)[C@H](C)NC(=O)[C@H](C)NC(=O)[C@H](CC(N)=O)NC(=O)[C@H](CC(=O)O)NC1=O)NC(=O)[C@H](CC(C)(C)C)NC(=O)[C@H](CC(=O)O)NC2=O` (stereo partly drawn) [I-1024, Ac-PL3-Asp-Npg-B5-Asp-Asn-Ala-Ala-Phe-Thr-PyrS2-2FF-BztA-Ser-NH2], for which the pIC50 in data set [1] (read-out: beta-Catenin FP IC50) was 7.37. Moreover, the chromatographic logD in data set [2] was determined as 2.45. In data set [3] (Solubility (uM)), this molecule registered a Solubility of 14 µM (≈ 26.3 µg/mL).
Consider `CC(=O)N1CCC[C@]12CC=CCCCC1(CCCC=CCCCOC(=O)N3CC[C@@](C(=O)N[C@@H](Cc4ccccc4Cl)C(=O)N[C@@H](Cc4csc5ccccc45)C(=O)N[C@@H](C(N)=O)[C@H](C)O)(C3)NC(=O)[C@H](Cc3ccccc3)NC(=O)[C@H](Cc3ccccc3)NC(=O)[C@H](C)NC(=O)[C@H](C)NC(=O)[C@H](CCC(=O)O)NC(=O)[C@H](CC(=O)O)NC1=O)NC(=O)[C@H](CC(C)(C)C)NC(=O)[C@H](CC(=O)O)NC2=O` (stereo partly drawn) [I-1038, Ac-PL3-Asp-Npg-B5-Asp-Glu-Ala-Ala-Phe-Phe-PyrS2-2C1F-BztA-dThr-NH2], for which the pIC50 in data set [1] (read-out: beta-Catenin FP IC50) was 7.00. The molecule further registered a chromatographic logD in data set [2] of 2.73. In addition, in data set [3], the “Solubility” value came out at 10 µM (≈ 19.7 µg/mL).
As to `CC(=O)N1CCC[C@]12CC=CCCCC1(CCCC=CCCCOC(=O)N3CC[C@@](C(=O)N[C@@H](Cc4ccccc4Cl)C(=O)N[C@@H](Cc4csc5ccccc45)C(=O)N[C@@H](C(N)=O)[C@H](C)O)(C3)NC(=O)[C@H](CC(C)C)NC(=O)[C@H](Cc3ccccc3)NC(=O)[C@H](C)NC(=O)[C@H](C)NC(=O)[C@H](CCC(=O)O)NC(=O)[C@H](CC(=O)O)NC1=O)NC(=O)[C@H](CC(C)(C)C)NC(=O)[C@H](CC(=O)O)NC2=O` (stereo partly drawn) [I-1039, Ac-PL3-Asp-Npg-B5-Asp-Glu-Ala-Ala-Phe-Leu-PyrS2-2C1F-BztA-dThr-NH2], in data set [1] (read-out: beta-Catenin FP IC50), the pIC50 was 7.24. Further, the chromatographic logD in data set [2] is 2.65. For the same molecule, the concentration in solution in data set [3] (Solubility (uM)) (Solubility) was 20 µM (≈ 38.7 µg/mL).
For `CC(=O)N1CCC[C@]12CC=CCCCC1(CCCC=CCCCOC(=O)N3CC[C@@](C(=O)N[C@@H](Cc4ccccc4Cl)C(=O)N[C@@H](Cc4csc5ccccc45)C(=O)N[C@@H](CO)C(N)=O)(C3)NC(=O)[C@H]([C@@H](C)O)NC(=O)[C@H](Cc3ccccc3)NC(=O)[C@H](C)NC(=O)[C@H](C)NC(=O)[C@H](CC(=O)O)NC(=O)[C@H](CC(=O)O)NC1=O)NC(=O)[C@H](Cc1ccccc1)NC(=O)[C@H](CC(=O)O)NC2=O` (stereo partly drawn) [I-1049, Ac-PL3-Asp-Phe-B5-Asp-Asp-Ala-Ala-Phe-Thr-PyrS2-2C1F-BztA-Ser-NH2], in that order: 8.22, 2.29 and 48 µM (≈ 91.8 µg/mL).

These data come from US20240116985A1, “STAPLED PEPTIDES AND METHODS THEREOF” (priority 2020, published 2024).
